# Experimental data as given in US6288110A, “Pharmaceutical compositions comprising disulfiram” (Yeda Research and Development Co Ltd., priority 1998, dated 2001).
# “Also recorded” adds a separate entry of the source. Read-outs that look alike come from different tables or passages of the source.
# Legend:
# [1] = system: transmammary carcinogenesis; conditions: 7,12-dimethylbenz(a)anthracene, mice; cited from earlier work
# 3T3 fibroblasts = experiment: Cell rounding, 3T3 fibroblasts; type: cell-based; conditions: 1 μM
# BCE cells = experiment: Apoptosis by FACS (DNA content) in BCE cells; type: cell-based, bovine; conditions: 0.5-5 μM, 20 hours
# Procedure: Cells were cultured in plastic tissue culture dishes for 48 hours in presence of growth media as described above, until reaching 40-50% confluency. Disulfiram was then added to the cells for 20 hours. The cells were removed from the plates by EDTA-trypsin and fixed in ice-cold 70% ethanol (BioLab, Israel) in -20° C. for 2 hr to overnight. The fixed cells (2-5×10^6) were washed once with HEPES-buffered saline (HBSS) and incubated with 0.5 mg/ml RNAseH (Boehringer Mannheim). Afterwards the cells were resuspended in HBSS containing 50 μg/ml propidium iodide (Sigma) and subsequently analyzed on a FACSort flow cytometer (Beckton Dickinson Inc.) using Lysis II software. For the analysis, 10,000 cells were examined from each sample. The percentage of the hypodiploid cells was measured (Darzynkiewicz, 1992; Afanasyev, 1993). The cell cycle histogram was divided into four regions according to the cell cycle phases: Ap, apoptotic cells; G1, diploid cells; S, intermediate cells; and G2 /M, tetraploid cells.
# (§1) Capillary endothelial cells were grown during 48 hours to 40-50% confluency and disulfiram was then added to the cells for 20 hours as described in section (g) of "Materials and Methods" above. […] The abundance of apoptotic cells was dose-dependent.
# intestinal cancer = conditions: azoxymethane, rats; cited from earlier work
# BALB/MK keratinocytes [2] = experiment: DNA synthesis (3H-thymidine incorporation) in BALB/MK keratinocytes; type: cell-based, murine; conditions: for IC (maximal): Mus musculus, Keratinocyte
# Procedure: The BALB/MK epidermal keratinocyte cell line, kindly provided by Dr. S Aaronson (National Cancer Institute, Bethesda, Md., USA), was cultured (37° C., 10% CO2 humidified atmosphere) in calcium-free MEM (Beth Haemek, Israel) supplemented with 10% dialyzed FCS and murine EGF (5 ng/ml).
# Bovine capillary endothelial cells (BCE) and bovine aortic BSMC were plated in 24-well plates (6000 cells per well) in 500 μl DMEM medium supplemented with 10% Colorado calf serum (CCS) (GIBCO, USA) and GPS. After 24 hours, medium was changed to starvation medium (2% CCS, 0.5% BSA, GPS) for 24 hours. ^3 H-methyl-thymidine (5 μCi/ml) was added for the last 6 hours. DNA synthesis assays were performed as described above, in triplicates. DNA synthesis assays in BALB/MK keratinocytes were performed as previously described (Marikovsky, 1995).-DNA synthesis assays were performed in triplicates.
# Disulfiram was prepared in 0.1 mM stock solutions in DMSO. Control samples were incubated with the appropriate concentration of DMSO. Inhibition was calculated as percentage of DNA synthesis of control.
# To determine whether disulfiram acts directly on endothelial cells rather than on accessory cells such as macrophages and mast cells that can be responsible for the development of an angiogenic response in vivo, the effect of the drug on the growth of BCE cells was examined in vitro as described in section (c) of "Materials and Methods" above. DNA synthesis in BCE cells was measured in presence of increasing concentrations of disulfiram incubated for 24 hours with the cells. […] Maximal inhibitory activity (80%) for BSMC was at 0.5-1 μM disulfiram, while maximal inhibitory activity for C6 glioma cells or BALB/MK keratinocytes was at concentrations 10 fold higher (2-3 μM) than those for endothelial cells (0.2-0.5 μM).
# To examine the time course of the effect of disulfiram and whether the effect was reversible, cells were incubated with disulfiram for various periods of time (1, 2, 4 and 24 hours), then washed away and DNA synthesis was determined. One to 4 hours of exposure to disulfiram were enough to induce maximal inhibitory effect at concentrations ranging from 0.5 μM for BCE cells (FIG. 3A) to 5 μM for BALB/MK keratinocytes (FIG. 3C) and C6 glioma cells (FIG. 3D). […] BSMC were less sensitive as far as time course is concerned when incubated with 1 μM disulfiram. Following 4 hours of incubation with 1 μM disulfiram, DNA synthesis inhibition in BSMC reached only 50% (FIG. 3B). The data shown here indicate that the damage for capillary endothelial cells, following a short incubation of 1 to 2 hours, was maximal and that, at least in a time scale of 24 hours, this damage was non-reversible.
# murine leukemia = conditions: 3 mg/mouse; cited from earlier work
# aldolases = conditions: cited from earlier work
# BALB/MK keratinocytes [3] = experiment: TUNEL assay for apoptosis, BALB/MK keratinocytes; type: cell-based, murine; conditions: 5 μM
# Procedure: Cells were cultured on microscope slides for 48 hours in presence of growth media as described above, until reaching 40-50% confluency. […] Apoptosis was analyzed by the in situ TUNEL staining carried out as described (Wride, 1994). Briefly, microscope slides were incubated for 15 min in 2×SSC buffer at 60° C., washed in DDW and incubated with 20 μg/ml proteinase K (Boehringer Mannheim) for 15 min at room temperature. After a wash with DDW, endogenous peroxidases were inactivated by incubating the slides with 2% H2 O2 in PBST (PBS with 0.05% Tween 20) for 10 min at room temperature. Slides were then incubated in TdT buffer (Boehringer Mannheim) for 5 min at room temperature, and a reaction mixture containing 5×TdT buffer and 1 μl biotin-21-dUTP (Clontech, 1 mM stock) and 8 units of the TdT enzyme (Boehringer Mannheim) in total volume of 50 μl was subsequently added. The reactions were carried out at 37° C. for 1.5 hr in a humid chamber. The slides were washed in 2×SSC, DDW and finally with PBS and covered with 10% skim milk in PBST for 15 min. After removal of the skim milk, the sections were incubated with ABC solution from ABC kit (Vector Laboratories, Inc.) for 30 min at room temperature, washed with PBS and stained using AEC procedure (Sigma) The slides were then washed ×3 in DDW and stained with haematoxylin for 30 sec and mounted by Kaiser's glycerol gelatin (Merck). […]
# endothelial cells = experiment: Cell rounding, capillary endothelial cells; type: cell-based, bovine
# Procedure: as §1
# normal mice = conditions: cited from earlier work
# [4] = system: toxic side effects of HECNU; conditions: rats; cited from earlier work
smiles,measurement,setting,value
"CCN(CC)C(=S)SSC(=S)N(CC)CC [disulfiram, Bis(diethylthiocarbamoyl) disulfide]",inhibition of transmammary carcinogenesis,[1],inhibit transmammary carcinogenesis
same,cell rounding,3T3 fibroblasts,did not change their shape to the rounded form
same,apoptosis by FACS analysis of DNA content,BCE cells,induced in a dose-dependent manner a sub-diploid apoptotic population; also recorded: appearance of a sub-diploid apoptotic population of cells
same,dose dependence of abundance of apoptotic cells (FACS),BCE cells,dose-dependent
same,interference with induction of intestinal cancer,intestinal cancer,interfere with induction of cancer
same,"maximal inhibitory concentration relative to endothelial cells, fold higher",BALB/MK keratinocytes [2]; BALB/MK vs endothelial cells (0.2-0.5 μM),10 fold
same,persistence of inhibitory effect after short exposure,"BALB/MK keratinocytes [2]; MK, 24 hours following short exposure",inhibitory effect seemed to be maintained
same,IC (maximal),"BALB/MK keratinocytes [2]; BALB/MK keratinocytes, read-out: concentration of maximal inhibitory activity (DNA synthesis)",2 to 3 µM
same,IC (maximal),"BALB/MK keratinocytes [2]; BALB/MK, 1 to 4 hours of exposure, washed, read-out: concentration inducing maximal inhibitory effect on DNA synthesis, short exposure",5 µM
same,potentiation of nitrogen mustard (HN2) cytotoxicity,murine leukemia,potentiate
same,inhibition of aldolases,aldolases,inhibit
same,apoptosis by TUNEL method,BALB/MK keratinocytes [3],did not induce
same,cell rounding,endothelial cells,quickly became rounded
same,toxic dose,normal mice,6-10 mg/mouse/day
same,effect on anti-tumor potency of HECNU,[4],without inhibiting its anti-tumor potency
same,protection against toxic side effects of HECNU,[4],protected rats
